Source: PubChem BioAssay AID328 (DTP/NCI, 2004)
Toxic doses and inconclusive results are not listed. Residues, ends and D or L forms follow the SMILES beside them.

Tested on: BDF1 mice, P388 leukemia ip, median survival T/C
Assay: NCI In Vivo Anticancer Drug Screen. Data for tumor model P388 Leukemia (intraperitoneal) in B6D2F1 (BDF1) mice
Details: endpoint: median survival time, higher = longer survival
In short: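 Each value expresses how treatment altered survival: treated-mouse outcome over vehicle-mouse outcome, both groups bearing the transplanted tumour.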

[1] = dose: 100.0 mg/kg/injection, schedule: Q04DX003 (ip), vehicle: saline with Tween-80
[2] = dose: 200.0 mg/kg/injection, schedule: Q04DX003 (ip), vehicle: saline with Tween-80
[3] = dose: 400.0 mg/kg/injection, schedule: Q04DX003 (ip), vehicle: saline with Tween-80
[4] = dose: 50.0 mg/kg/injection, schedule: Q01DX005 (ip), vehicle: saline with Tween-80
[5] = dose: 100.0 mg/kg/injection, schedule: Q01DX005 (ip), vehicle: saline with Tween-80
[6] = dose: 50.0 mg/kg/injection, schedule: Q04DX003 (ip), vehicle: saline with Tween-80

Q: For `CC/C(=N\NS(=O)(=O)c1ccc(C)cc1)c1ccc(OC)cc1`, which T/C (dose: 50.0 mg/kg/injection, schedule: Q01DX009 (ip), vehicle: saline) is on record?
A: The T/C was 92 % of control.

Q: And the T/C (dose: 100.0 mg/kg/injection, schedule: Q01DX009 (ip), vehicle: saline)?
A: Its T/C is 104 % of control.

Q: And the T/C (dose: 200.0 mg/kg/injection, schedule: Q01DX009 (ip), vehicle: saline)?
A: Its T/C is 93 % of control.

Q: What does the source list for `CS/C(N)=N\S(=O)(=O)c1ccc(NC(C)=O)cc1`?
A: T/C [1]: 95 % of control; T/C [2]: 119 % of control; T/C [3]: 100 % of control

Q: Which T/C (dose: 50.0 mg/kg/injection, schedule: Q01DX009 (ip), vehicle: saline with Tween-80) does the source give for `CCCCOCN(COCCCC)c1cccc(Cl)c1` here?
A: The T/C was 100 % of control.

Q: What about the T/C (dose: 100.0 mg/kg/injection, schedule: Q01DX009 (ip), vehicle: saline with Tween-80) of the same compound?
A: Its T/C is 106 % of control.

Q: And the T/C (dose: 200.0 mg/kg/injection, schedule: Q01DX009 (ip), vehicle: saline with Tween-80)?
A: Its T/C is 117 % of control.

Q: Which results are given for `CC(=O)NC(C)C(=O)NC(C)C(=O)NC(C)C(=O)NC(C)C(=O)O` (stereo unspecified) (Ac-AAAA-OH; configuration not given here)?
A: T/C [4]: 98 % of control; T/C [5]: 95 % of control

Q: What does the source list for `CCNC(=O)OCc1cnc(C)c(OC(=O)NCC)c1COC(=O)NCC`?
A: T/C (dose: 25.0 mg/kg/injection, schedule: Q01DX005 (ip), vehicle: saline with Tween-80): 98 % of control; T/C [4]: 110 % of control; T/C [5]: 100 % of control; T/C (dose: 200.0 mg/kg/injection, schedule: Q01DX005 (ip), vehicle: saline with Tween-80): 101 % of control

Q: Which results are given for `CCOC(=O)C1(C(C)C)OC2CCCCCN2C1=O` (stereo unspecified)?
A: T/C [6]: 100 % of control; T/C [1]: 108 % of control; T/C [2]: 100 % of control; T/C [3]: 108 % of control

Q: With `C[C@@H]1C[C@](O)([C@@H](C)Cl)C(=O)O[C@@H]2CCN3CC=C(COC(=O)[C@]1(C)O)[C@H]23` as the compound, how does the T/C (dose: 30.0 mg/kg/injection, schedule: Q01DX010 (ip), vehicle: saline) read?
A: The T/C was 105 % of control.

Q: `C1=CCONC1` was tested. Which T/C [6] did it give?
A: Its T/C is 99 % of control.

Q: What about the T/C [1] of the same compound?
A: Its T/C is 104 % of control.

Q: What about the T/C (dose: 100.0 mg/kg/injection, schedule: Q04DX003 (ip), vehicle: saline) of the same compound?
A: The T/C was 103 % of control.

Q: What about the T/C [2] of the same compound?
A: Its T/C is 100 % of control.

Q: What about the T/C (dose: 200.0 mg/kg/injection, schedule: Q04DX003 (ip), vehicle: saline) of the same compound?
A: The T/C was 120 % of control.

Q: And the T/C (dose: 400.0 mg/kg/injection, schedule: Q04DX003 (ip), vehicle: saline)?
A: The T/C was 93 % of control.

Q: How did the T/C (dose: 0.29 mg/kg/injection, schedule: Q04DX003 (ip), vehicle: saline) turn out when `N#C[C@@H]1C2C=CC(CC2)[C@H]1C#N` was run?
A: Its T/C is 95 % of control.

Q: And the T/C (dose: 0.44 mg/kg/injection, schedule: Q04DX003 (ip), vehicle: saline)?
A: Its T/C is 120 % of control.

Q: And the T/C (dose: 0.66 mg/kg/injection, schedule: Q04DX003 (ip), vehicle: saline)?
A: The T/C was 100 % of control.

Q: What about the T/C (dose: 1.0 mg/kg/injection, schedule: Q04DX003 (ip), vehicle: saline) of the same compound?
A: Its T/C is 115 % of control.

Q: And the T/C (dose: 1.5 mg/kg/injection, schedule: Q04DX003 (ip), vehicle: saline)?
A: Its T/C is 100 % of control.

Q: What about the T/C (dose: 5.0 mg/kg/injection, schedule: Q04DX003 (ip), vehicle: saline with Tween-80) of the same compound?
A: Its T/C is 100 % of control.

Q: With `CC(O)CN1CC(C)N(CC(C)O)CC1C` (stereo unspecified) as the compound, how does the T/C (dose: 12.5 mg/kg/injection, schedule: Q04DX003 (ip), vehicle: saline) read?
A: The T/C was 104 % of control.

Q: What about the T/C (dose: 25.0 mg/kg/injection, schedule: Q04DX003 (ip), vehicle: saline) of the same compound?
A: The T/C was 100 % of control.

Q: What about the T/C (dose: 50.0 mg/kg/injection, schedule: Q04DX003 (ip), vehicle: saline) of the same compound?
A: Its T/C is 100 % of control.

Q: Which results are given for `N=C(N)SC1c2cc(Cl)ccc2-c2c(Cl)cc(Cl)cc21` (stereo unspecified)?
A: T/C (dose: 3.1 mg/kg/injection, schedule: Q01DX010 (ip), vehicle: carboxymethylcellulose (CMC)): 100 % of control; T/C (dose: 6.2 mg/kg/injection, schedule: Q01DX010 (ip), vehicle: carboxymethylcellulose (CMC)): 110 % of control; T/C (dose: 12.5 mg/kg/injection, schedule: Q01DX009 (ip), vehicle: Klucel (hydroxypropylcellulose) (HPC)): 100 % of control; T/C (dose: 12.5 mg/kg/injection, schedule: Q01DX010 (ip), vehicle: carboxymethylcellulose (CMC)): 110 % of control; T/C (dose: 25.0 mg/kg/injection, schedule: Q01DX009 (ip), vehicle: Klucel (hydroxypropylcellulose) (HPC)): 120 % of control; T/C (dose: 100.0 mg/kg/injection, schedule: Q01DX010 (ip), vehicle: carboxymethylcellulose (CMC)): 150 % of control
